Data taken from publication PMC2953536 (Angewandte Chemie (International ed. in English), 2010).

What was measured:
MMP-12 = MMP-12 (Homo sapiens, UniProt P39900); assay: Fluorescence-based MMP inhibition assay, MMP-12; assay type: biochemical; details: MMP-12, fluorescence based assay, average of two experiments
MMP-9 = MMP-9 (Homo sapiens, UniProt P14780); assay: Fluorescence-based MMP inhibition assay, MMP-9; assay type: biochemical; details: inhibitor, MMP-9, fluorescence based assay, average of two experiments
MMP-9, sequence (P14780 94-707, species assumed): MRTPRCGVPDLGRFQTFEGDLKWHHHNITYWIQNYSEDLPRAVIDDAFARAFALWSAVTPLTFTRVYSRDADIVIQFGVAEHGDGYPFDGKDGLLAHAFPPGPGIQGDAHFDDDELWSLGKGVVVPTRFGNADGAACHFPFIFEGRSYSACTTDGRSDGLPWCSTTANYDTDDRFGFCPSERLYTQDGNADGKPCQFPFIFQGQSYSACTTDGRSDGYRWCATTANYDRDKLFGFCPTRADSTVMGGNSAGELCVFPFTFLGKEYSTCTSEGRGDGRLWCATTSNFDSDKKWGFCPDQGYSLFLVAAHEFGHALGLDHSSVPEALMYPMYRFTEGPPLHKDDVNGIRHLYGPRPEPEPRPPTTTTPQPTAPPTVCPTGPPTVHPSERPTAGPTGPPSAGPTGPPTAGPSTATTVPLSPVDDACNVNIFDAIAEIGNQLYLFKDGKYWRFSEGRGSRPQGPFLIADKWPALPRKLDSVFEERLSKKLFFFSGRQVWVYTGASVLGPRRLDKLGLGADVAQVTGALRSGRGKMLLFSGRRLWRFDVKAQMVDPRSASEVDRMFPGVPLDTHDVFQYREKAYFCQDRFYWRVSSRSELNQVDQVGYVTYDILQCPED

MMP-12, sequence (P39900 106-470, species assumed): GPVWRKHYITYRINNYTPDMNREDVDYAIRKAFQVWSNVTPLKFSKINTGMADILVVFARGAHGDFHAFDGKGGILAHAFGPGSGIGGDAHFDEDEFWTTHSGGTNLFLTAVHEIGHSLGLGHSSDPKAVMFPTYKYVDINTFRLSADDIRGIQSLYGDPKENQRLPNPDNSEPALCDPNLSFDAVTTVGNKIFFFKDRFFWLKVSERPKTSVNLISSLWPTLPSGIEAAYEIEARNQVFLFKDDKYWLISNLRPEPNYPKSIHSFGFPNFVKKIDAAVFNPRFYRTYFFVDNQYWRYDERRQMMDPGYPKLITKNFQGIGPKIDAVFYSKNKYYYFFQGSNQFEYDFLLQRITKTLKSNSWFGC

IC50 (MMP-12): 0.053 µM
IC50 (MMP-9): 6.1 µM
SMILES: O=C(NCc1ccc(-c2ccccc2)cc1)c1cccc(=O)n1O [1,2-HOPO-2]
